# Reference: patent US9763980B2, “Combined chemical modification of sphingosine-1-phosphate (S1P) and CXCR4 signalling pathways for hematopoietic stem cell (HSC) mobilization and engraftment” (Children's Medical Center Corporation, priority 2011, dated 2017)
# “Also recorded” adds a separate entry of the source.
# What was measured:
# [1] = tested on: CHT hematopoiesis (HSPC markers cmyb and runx1 in the CHT); assay: Zebrafish embryo chemical treatment and dose matrices, whole mount in situ hybridization of cmyb/runx1 in the CHT; type: in vivo; details: for Experimental data: concentration of S1PR1 modulating agent in the combination effective at increasing HSC engraftment / Experimental data: concentration of S1PR1 modulating agent in the combination effective at increasing HSC mobilization: combination with AMD3100; for mobilization of HSC from the bone marrow in vivo: combination with AMD3100 in specific ratios; for rescue of the effect of 25 μM W146 on cmyb/runx1 expression: addition of agent to W146; for cmyb/runx1 expression in the CHT (CHT hematopoiesis): agent alone, treatment from 48 hpf, 72 hpf embryos
# Procedure: Transgenic zebrafish embryos were intercrossed and selected using epifluorescence (e.g. Runx1+23:EGFP, cmyb:EGFP^4, cd41:EGFP^2, kdrl:DsRed2^31). Live imaging was performed using a spinning disk confocal microscope with an incubated chamber. Zebrafish embryos were mounted and imaged as previously described. Live mouse fetal liver explants were prepared as previously described for aorta-gonad-mesonephros tissue^10. Image processing was done primarily with Fluorender^32 and ImageJ, which included the MTrackJ plugin^33 for manual cell tracking. For chemical screening and dose matrices, stage-matched AB embryos were dechorionated and arrayed 8-10/well in 96-well mesh-bottomed plates (Millipore). Embryos were treated from 48-72 hpf by placement directly in 96-well receiver plates containing small molecules diluted in E3 media+1% DMSO. Embryos were checked for circulation before fixation. Whole mount in situ hybridization was performed as previously described^34, with the addition of 0.2% glutaraldehyde to 4% formaldehyde at the post-fixation step. […] Lineage tracing was performed by injecting cd41:EGFP positive embryos with caged fluorescein conjugated to dextran (MW 10000). Embryos were uncaged in the DA at 28 hpf with a UV laser. Embryos were raised to 46 hpf in E3 media or E3+S1PR1 antagonist W146 (10 μM), then fixed for antibody staining to detect double positive cd41:EGFP and uncaged FITC HSPCs. Receptor fusion cDNAs (25 pg) were injected into one-cell embryos with Tol2 RNA (15 pg). Flow cytometry was performed using a LSR II and cells were sorted using a FACSAria (BD Biosciences). Flow cytometry data was analyzed using FACSDiva and FlowJo software.
# Having followed newly born aortic HSPCs to the intermediate tissue, the inventors assessed the signaling pathways involved in embryonic migration. The inventors designed a chemical genetic screen to introduce small molecules to the zebrafish embryo from the peak window of HSPC migration to the CHT (48-72 hpf).
# [2] = tested on: HSPCs in the CHT; assay: Lineage tracing of HSPCs from DA to CHT (cd41:EGFP and uncaged FITC); type: in vivo, zebrafish; details: W146 10 μM, versus control
# Procedure: Transgenic zebrafish embryos were intercrossed and selected using epifluorescence (e.g. Runx1+23:EGFP, cmyb:EGFP^4, cd41:EGFP^2, kdrl:DsRed2^31). Live imaging was performed using a spinning disk confocal microscope with an incubated chamber. Zebrafish embryos were mounted and imaged as previously described. Live mouse fetal liver explants were prepared as previously described for aorta-gonad-mesonephros tissue^10. Image processing was done primarily with Fluorender^32 and ImageJ, which included the MTrackJ plugin^33 for manual cell tracking. For chemical screening and dose matrices, stage-matched AB embryos were dechorionated and arrayed 8-10/well in 96-well mesh-bottomed plates (Millipore). Embryos were treated from 48-72 hpf by placement directly in 96-well receiver plates containing small molecules diluted in E3 media+1% DMSO. Embryos were checked for circulation before fixation. Whole mount in situ hybridization was performed as previously described^34, with the addition of 0.2% glutaraldehyde to 4% formaldehyde at the post-fixation step. Morpholino (s1pr1/edg1 ATG-MO^23 obtained from Gene Tools, LLC) was injected into one-cell Tu or cmyb:EGFP; kdrl:DsRed2 transgenic embryos at a 1 ng dose (higher doses stop circulation). […] Flow cytometry data was analyzed using FACSDiva and FlowJo software. […]
# [3] = tested on: HSPCs in the CHT; assay: Time-lapse live imaging and cell tracking in the CHT (Runx1+23:EGFP; kdrl:DsRed2); type: in vivo, zebrafish
# Procedure: Transgenic zebrafish embryos were intercrossed and selected using epifluorescence (e.g. Runx1+23:EGFP, cmyb:EGFP^4, cd41:EGFP^2, kdrl:DsRed2^31). Live imaging was performed using a spinning disk confocal microscope with an incubated chamber. Zebrafish embryos were mounted and imaged as previously described. Live mouse fetal liver explants were prepared as previously described for aorta-gonad-mesonephros tissue^10. Image processing was done primarily with Fluorender^32 and ImageJ, which included the MTrackJ plugin^33 for manual cell tracking. For chemical screening and dose matrices, stage-matched AB embryos were dechorionated and arrayed 8-10/well in 96-well mesh-bottomed plates (Millipore). Embryos were treated from 48-72 hpf by placement directly in 96-well receiver plates containing small molecules diluted in E3 media+1% DMSO. Embryos were checked for circulation before fixation. Whole mount in situ hybridization was performed as previously described^34, with the addition of 0.2% glutaraldehyde to 4% formaldehyde at the post-fixation step. Morpholino (s1pr1/edg1 ATG-MO^23 obtained from Gene Tools, LLC) was injected into one-cell Tu or cmyb:EGFP; kdrl:DsRed2 transgenic embryos at a 1 ng dose (higher doses stop circulation). Lineage tracing was performed by injecting cd41:EGFP positive embryos with caged fluorescein conjugated to dextran (MW 10000). Embryos were uncaged in the DA at 28 hpf with a UV laser. Embryos were raised to 46 hpf in E3 media or E3+S1PR1 antagonist W146 (10 μM), then fixed for antibody staining to detect double positive cd41:EGFP and uncaged FITC HSPCs. Receptor fusion cDNAs (25 pg) were injected into one-cell embryos with Tol2 RNA (15 pg). Flow cytometry was performed using a LSR II and cells were sorted using a FACSAria (BD Biosciences). Flow cytometry data was analyzed using FACSDiva and FlowJo software.
# Time-lapse live imaging. Staged transgenic zebrafish embryos were selected and mounted for imaging in 1% LMP agarose with E3 media and tricaine as described. Pregnant C57/BL6 mice were dissected at E11 (vaginal plug observation was E0). Embryos were removed from the uterus in PBS with 10% FCS and penicillin-streptomycin. Embryos were staged as E11 by counting ˜42 somite pairs. Fetal livers were removed from the embryo and treated as described by Boisset and colleagues (“protocol b”)^10. Zebrafish embryos and fetal liver explants were imaged in MatTek glass bottom dishes (No. 1.5 cover slip). […] Quantification of 12 hours of CHT tracking data per time-lapse movie allowed us to define engrafted cells as stationary (i.e. a speed of <0.31 microns/minute) and resident in the CHT for at least 3 hours, otherwise they were scored as migratory and transient. […]
# [4] = molecular target: T1, endothelial S1P1 receptors (Mus musculus, UniProt O08530); details: type I diabetic vascular endothelium; cited from earlier work
# T1 construct: host or cells: vascular endothelium (as cited)
# [5] = molecular target: T1, endothelial S1P1 receptors; details: cited from earlier work
# [6] = in vivo; cited from earlier work
# [7] = tested on: autoimmune myocarditis; details: rat model for autoimmune myocarditis; cited from earlier work
# [8] = W146 10 μM, 38-50 hpf, versus control
# [9] = dose matrices, agent combined with AMD3100
# [10] = addition of AUY954, 54 hpf embryos
# T1 sequence (O08530 whole entry): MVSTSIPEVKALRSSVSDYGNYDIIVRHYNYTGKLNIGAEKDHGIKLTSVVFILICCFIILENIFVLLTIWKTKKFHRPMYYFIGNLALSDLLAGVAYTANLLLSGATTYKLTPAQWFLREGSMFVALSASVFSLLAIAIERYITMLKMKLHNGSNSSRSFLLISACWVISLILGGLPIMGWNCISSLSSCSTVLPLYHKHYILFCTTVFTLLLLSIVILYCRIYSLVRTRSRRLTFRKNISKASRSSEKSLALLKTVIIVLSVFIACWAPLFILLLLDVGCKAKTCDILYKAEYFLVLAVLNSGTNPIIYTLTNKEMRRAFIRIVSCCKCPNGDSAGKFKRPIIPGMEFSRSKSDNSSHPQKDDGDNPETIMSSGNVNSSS
smiles,measurement,setting,value
"CCCCCCc1cccc(NC(=O)[C@H](N)CCP(=O)(O)O)c1 [Compound W146, (R)-3-Amino-4-(3-hexylphenylamino)-4-oxobutylphosphonic acid]",CHT score in dose matrix,[1]; 5 μM AMD3100 and 10 μM W146,greatest CHT score
same,cmyb/runx1 expression in the CHT,"[1]; W146 25 μM, 54 hpf embryos",decreases
same,Experimental data: concentration of S1PR1 modulating agent in the combination effective at increasing HSC engraftment,[1],10 µM
same,Experimental data: concentration of S1PR1 modulating agent in the combination effective at increasing HSC mobilization,[1],5 μM W146
same,mobilization of HSC from the bone marrow in vivo,[1],improves mobilization
same,number of lineage traced HSPCs in the CHT,[2]; embryos raised to 46 hpf,increased
same,morphology of lineage traced HSPCs in the CHT,[2],morphology that differed from the control; also recorded: morphological changes
same,number of engrafted cells,[3]; [8],decreased
same,percentage of migratory cells,[3]; [8],increased
same,tracked cells in the CHT,[3]; [8],increased
same,CHT colonization,[3]; embryos in the antagonist during imaging,interferes with CHT colonization
"CCCCCCCCCCCCC/C=C/[C@@H](O)[C@@H](N)COP(=O)(O)O [Compound S1P, sphingosine-1-phosphate]",rescue of the effect of 25 μM W146 on cmyb/runx1 expression,[1]; 54 hpf embryos,rescued
same,cmyb/runx1 expression in the CHT (CHT hematopoiesis),[1],altered the migration pattern of HSPCs; also recorded: alters cmyb/runx1 expression pattern
same,CHT hematopoiesis,[1]; [9],synergistic increases
"O=C(O)CCNCc1ccc2sc(-c3ccc(-c4ccccc4)c(C(F)(F)F)c3)cc2c1 [AUY954, 3-[[2-[4-phenyl-3-(trifluoromethyl)phenyl]-1-benzothiophen-5-yl]methylamino]propanoic acid]",CHT score (greatest engraftment in dose matrix),[1]; 10 μM AMD3100 and 12.5 μM AUY945,+2
same,rescue of the cmyb/runx1 decrease caused by 25 μM AMD3100,[1]; [10],partially rescued
same,rescue of the effect of 25 μM SKI-2,[1]; [10],rescued
same,rescue of the effect of 25 μM W146 on cmyb/runx1 expression,[1]; 54 hpf embryos,rescued
same,Experimental data: concentration of S1PR1 modulating agent in the combination effective at increasing HSC engraftment,[1],12.5 µM
same,CHT hematopoiesis,[1]; [9],synergistic increases
Oc1ccc(Nc2nc(-c3ccc(Cl)cc3)cs2)cc1 [SKI-2],effect of SKI-2 in CHT hematopoiesis assay,"[1]; SKI-2 25 μM, 54 hpf embryos",depleting endogenous levels of S1P
same,effect on improving engraftment (CHT),[1]; SKI-2 alone,little effect
"FC(F)(F)c1cccc(-c2noc(-c3cc(-c4ccccc4)c(C(F)(F)F)s3)n2)c1 [SEW2871, 5-[4-phenyl-5-(trifluoromethyl)-2-thienyl]-3-[3-(trifluoromethyl)phenyl]-1,2,4-oxadiazole]",CHT score (greatest engraftment in dose matrix),[1]; 10 μM AMD3100 and 10 μM SEW2871,+2
same,Experimental data: concentration of S1PR1 modulating agent in the combination effective at increasing HSC engraftment,[1],10 µM
same,Experimental data: concentration of S1PR1 modulating agent in the combination effective at increasing HSC mobilization,[1],15 µM
same,mobilization of HSC from the bone marrow in vivo,[1],improves mobilization
same,CHT hematopoiesis,[1]; [9],synergistic increases
same,proinflammatory monocyte/endothelial interactions,[4],prevents
same,protection of the vasculature against TNFα-mediated monocyte/endothelial interactions,[5],protects
same,bradycardia,[6],does not induce bradycardia
NC(CO)(CO)CCc1ccc(Sc2cccc(OCc3ccccc3)c2)cc1Cl [KRP-203],therapeutic efficacy,[7],therapeutic efficacy
"c1cc(CN2CCCNCCNCCCNCC2)ccc1CN1CCCNCCNCCCNCC1 [AMD3100, 1,1′-[1,4-Phenylenebis(methylene)]bis[1,4,8,11-tetraazacyclotetradecane]]",cmyb/runx1 expression in the CHT,"[1]; AMD3100 25 μM, 54 hpf embryos",greatly decreases
same,cmyb/runx1 expression in the CHT (CHT hematopoiesis),[1],dose-dependently reduces; also recorded: decreases CHT hematopoiesis
same,CHT hematopoiesis,[1]; each agent alone at the doses of the effective FTY720/AMD3100 combination,no effect
